According to US20230000813A1, “COMPOUND FOR THE TREATMENT OF BOVINE OR SWINE RESPIRATORY DISEASE” (Intervet Inc., priority 2016, published 2023):
≈ marks a conversion by molar mass, not a printed value.

What was measured:
Assay in all cases: MIC, broth-microdilution (CLSI VET01-A4)
Assay type in all cases: cell-based
[1] = system: Pasteurella multocida PM 6391 (ATCC 43137, reference strain); conditions: Pasteurella multocida PM 6391; for MIC: read-out: MIC PM 6391
Procedure, shortened: (§1)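 Visual no-turbidity endpoint over twofold compound dilutions in microdilution trays, interpreted according to CLSI VET01-S3.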

[2] = system: Mannheimia haemolytica MH 10720 (154, BRD field isolate); conditions: Mannheimia haemolytica MH 10720
Procedure, shortened: as §1

[3] = system: Mannheimia haemolytica MH 6374 (ATCC 33396, reference strain); conditions: Mannheimia haemolytica MH 6374; for MIC: read-out: MIC MH 6374
Procedure, shortened: as §1

[4] = system: Mannheimia haemolytica MH 12587 (1071, BRD field isolate, macrolide-resistance: erm+, E+); conditions: Mannheimia haemolytica MH 12587, macrolide-resistant
Procedure, shortened: as §1

[5] = system: Pasteurella multocida PM 6267 (P 2225 (L386), reference strain, mouse infection strain); conditions: Pasteurella multocida PM 6267
Procedure, shortened: as §1

[6] = system: Pasteurella multocida PM 10775 (080130003051, BRD field isolate); conditions: Pasteurella multocida PM 10775
Procedure, shortened: as §1

[7] = system: Pasteurella multocida PM 12080 (IV102277-0093, BRD field isolate); conditions: Pasteurella multocida PM 12080
Procedure, shortened: as §1

[8] = system: Mannheimia haemolytica MH 6357 (M7/2, reference strain, cattle infection strain); conditions: Mannheimia haemolytica MH 6357; for MIC: read-out: MIC MH 6357
Procedure, shortened: as §1

[9] = system: Mannheimia haemolytica MH 13065 (XB0446-6003.9, BRD field isolate)
Procedure, shortened: (§2)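 Broth microdilution per CLSI VET01-A4 using doubling dilution series of compound. MIC taken as the lowest concentration with no turbidity visible to the unaided eye, interpreted per CLSI VET01-S3.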

[10] = system: Mannheimia haemolytica MH 13093 (XB0472-6014.1, BRD field isolate)
Procedure, shortened: as §2

## Cc1ccc(CNCc2ccc(C#Cc3ccc(C(=O)NC(C(=O)NO)C(C)(C)O)cc3)cc2)cc1 (centres unmarked) [Compound 579]
[1]
  MIC: 0.2 µM (≈ 0.0971 µg/mL)
[2]
  MIC MH 10720: <=0.1 μM
[3]
  MIC: 0.4 µM (≈ 0.194 µg/mL)
[4]
  MIC MH 12587: 1.6 µM (≈ 0.777 µg/mL)
[5]
  MIC PM 6267: <=0.1 μM
[6]
  MIC PM 10775: <=0.1 μM
[7]
  MIC PM 12080: <=0.1 μM
[8]
  MIC: 0.8 µM (≈ 0.388 µg/mL)
[9]
  MIC: 0.4 µM (≈ 0.194 µg/mL)
[10]
  MIC: 0.8 µM (≈ 0.388 µg/mL)

## C[C@@H](O)[C@H](NC(=O)c1ccc(C#Cc2ccc(CN(C)Cc3ccccc3)s2)cc1)C(=O)NO [Compound 196]
[1]
  MIC PM 6391: <=0.1 μM
[2]
  MIC MH 10720: <=0.1 μM
[3]
  MIC: 0.8 µM (≈ 0.382 µg/mL)
[4]
  MIC MH 12587: 1.6 µM (≈ 0.764 µg/mL)
[5]
  MIC PM 6267: <=0.1 μM
[6]
  MIC PM 10775: <=0.1 μM
[7]
  MIC PM 12080: <=0.1 μM
[8]
  MIC: 0.4 µM (≈ 0.191 µg/mL)
[9]
  MIC: 0.8 µM (≈ 0.382 µg/mL)
[10]
  MIC: 0.8 µM (≈ 0.382 µg/mL)

## CC(C)(C(NC(=O)c1ccc(C#Cc2ccc(CNCc3ccco3)cc2)cc1)C(=O)NO)S(C)(=O)=O (centres unmarked) [C. 616]
[1]
  MIC PM 6391: <=0.1 μM
[2]
  MIC MH 10720: <=0.1 μM
[3]
  MIC: 0.2 µM (≈ 0.105 µg/mL)
[4]
  MIC MH 12587: 0.8 µM (≈ 0.419 µg/mL)
[5]
  MIC PM 6267: <=0.1 μM
[6]
  MIC PM 10775: <=0.1 μM
[7]
  MIC PM 12080: <=0.1 μM
[8]
  MIC: 0.8 µM (≈ 0.419 µg/mL)
[9]
  MIC: 0.2 µM (≈ 0.105 µg/mL)
[10]
  MIC: 0.4 µM (≈ 0.209 µg/mL)

## C[C@@H](O)[C@H](NC(=O)c1ccc(C#Cc2ccc(CNCc3ccccc3)s2)cc1)C(=O)NO [Compound 195]
[1]
  MIC PM 6391: <=0.1 μM
[2]
  MIC MH 10720: <=0.1 μM
[3]
  MIC: 0.2 µM (≈ 0.0927 µg/mL)
[4]
  MIC MH 12587: 0.8 µM (≈ 0.371 µg/mL)
[5]
  MIC PM 6267: <=0.1 μM
[6]
  MIC PM 10775: <=0.1 μM
[7]
  MIC PM 12080: <=0.1 μM
[8]
  MIC: 0.2 µM (≈ 0.0927 µg/mL)
[9]
  MIC: 0.4 µM (≈ 0.185 µg/mL)
[10]
  MIC: 0.4 µM (≈ 0.185 µg/mL)

## C[C@@H](O)[C@H](NC(=O)c1ccc(C#Cc2ccc(CN3CCOCC3)s2)cc1)C(=O)NO [C. 192]
[1]
  MIC: 0.2 µM (≈ 0.0887 µg/mL)
[2]; read-out: MIC MH 10720
  MIC: 0.2 µM (≈ 0.0887 µg/mL)
[3]
  MIC: 0.8 µM (≈ 0.355 µg/mL)
[4]
  MIC MH 12587: 1.6 µM (≈ 0.71 µg/mL)
[5]
  MIC PM 6267: <=0.1 μM
[6]
  MIC PM 10775: <=0.1 μM
[7]
  MIC PM 12080: <=0.1 μM
[8]
  MIC: 0.8 µM (≈ 0.355 µg/mL)
[9]
  MIC: 0.8 µM (≈ 0.355 µg/mL)
[10]
  MIC: 0.8 µM (≈ 0.355 µg/mL)

## CC(C)(O)C(NC(=O)c1ccc(C#Cc2ccc(CNCc3cccnc3)cc2)cc1)C(=O)NO (centres unmarked) [Compound 574]
[1]
  MIC PM 6391: <=0.1 μM
[2]
  MIC MH 10720: <=0.1 μM
[3]
  MIC: 0.4 µM (≈ 0.189 µg/mL)
[4]
  MIC MH 12587: 1.6 µM (≈ 0.756 µg/mL)
[5]
  MIC PM 6267: <=0.1 μM
[6]
  MIC PM 10775: <=0.1 μM
[7]
  MIC PM 12080: <=0.1 μM
[8]
  MIC: 0.8 µM (≈ 0.378 µg/mL)
[9]
  MIC: 0.4 µM (≈ 0.189 µg/mL)
[10]
  MIC: 0.8 µM (≈ 0.378 µg/mL)

## C#CCNCc1ccc(C#Cc2ccc(C(=O)NC(C(=O)NO)C(C)(C)N)cc2)s1 (racemic) [Compound 633]
[1]
  MIC: 0.2 µM (≈ 0.0849 µg/mL)
[2]
  MIC MH 10720: <=0.1 μM
[3]
  MIC: 0.4 µM (≈ 0.17 µg/mL)
[4]
  MIC MH 12587: 0.8 µM (≈ 0.34 µg/mL)
[5]
  MIC PM 6267: <=0.1 μM
[6]
  MIC PM 10775: <=0.1 μM
[7]; read-out: MIC PM 12080
  MIC: 0.2 µM (≈ 0.0849 µg/mL)
[8]
  MIC: 0.8 µM (≈ 0.34 µg/mL)
[9]
  MIC: 0.8 µM (≈ 0.34 µg/mL)
[10]
  MIC: 0.8 µM (≈ 0.34 µg/mL)

## C[C@@H](O)[C@H](NC(=O)c1ccc(C#Cc2ccc(CNCc3cccs3)cc2)cc1)C(=O)NO [Compound 260]
[1]
  MIC PM 6391: <=0.1 μM
[2]
  MIC MH 10720: <=0.1 μM
[3]
  MIC MH 6374: <=0.1 μM
[4]
  MIC MH 12587: 0.4 µM (≈ 0.185 µg/mL)
[5]
  MIC PM 6267: <=0.1 μM
[6]
  MIC PM 10775: <=0.1 μM
[7]
  MIC PM 12080: <=0.1 μM
[8]
  MIC MH 6357: <=0.1 μM
[9]
  MIC: 0.4 µM (≈ 0.185 µg/mL)
[10]
  MIC: 0.4 µM (≈ 0.185 µg/mL)

## C#CCNCc1ccc(C#Cc2ccc(C(=O)NC(C(=O)NO)C(C)(C)N)cc2)cc1 (racemic) [Compound 626]
[2]
  MIC MH 10720: <=0.1 μM
[3]
  MIC: 0.4 µM (≈ 0.167 µg/mL)
[4]
  MIC MH 12587: 0.8 µM (≈ 0.335 µg/mL)
[5]
  MIC PM 6267: <=0.1 μM
[6]
  MIC PM 10775: <=0.1 μM
[7]
  MIC PM 12080: <=0.1 μM
[8]
  MIC: 0.8 µM (≈ 0.335 µg/mL)
[9]
  MIC: 0.4 µM (≈ 0.167 µg/mL)
[10]
  MIC: 0.8 µM (≈ 0.335 µg/mL)

## CC(C)C(NC(=O)c1ccc(C#Cc2ccc(CNCC#N)cc2)cc1)C(=O)NO (centres unmarked) [Compound 346]
[2]
  MIC MH 10720: <=0.1 μM
[3]
  MIC: 0.4 µM (≈ 0.162 µg/mL)
[4]
  MIC MH 12587: 0.8 µM (≈ 0.324 µg/mL)
[5]
  MIC PM 6267: <=0.1 μM
[6]
  MIC PM 10775: <=0.1 μM
[7]
  MIC PM 12080: <=0.1 μM
[8]
  MIC: 0.4 µM (≈ 0.162 µg/mL)
[9]
  MIC: 0.2 µM (≈ 0.0809 µg/mL)
[10]
  MIC: 0.4 µM (≈ 0.162 µg/mL)
